“Also recorded” adds a separate entry of the source.
Columns and labels:
[1] = Storage stability at room temperature (NMR, LC-MS); format: physicochemical; settings: several months storage at room temperature; confirmed via NMR and LC-MS
Source text: [2-(2-Furylmethylcarbamoylamino)-2-oxo-ethyl]

[2] = tested on: citrate synthase and mitochondrial complex I; experiment: Enzyme activity measurements in muscle tissue, B16F10 mice; format: in vivo; settings: tumor+compound vs tumor
Experimental: The enzyme activities of citrate synthase and mitochondrial complex I in muscle tissue of B16F10 inoculated mice were determined as described above for the […] mice.

[3] = tested on: diaphragm fiber bundle of CHF mice; experiment: Contractile function of diaphragm fiber bundles, CHF mice; format: in vivo
Experimental: (§1) To provide a direct functional assessment, the contractility in skeletal muscle fiber bundles, i.e. fibre bundle from the diaphragm of MCT mice and CIF mice, was measured as follows. A fiber bundle from the diaphragm was isolated to allow in vitro contractile function to be assessed using a length-controlled lever system (301B, Aurora Scientific Inc., Aurora, Canada), as described by Bowen et al., FASEB J, 2017, 31. Briefly, a muscle bundle was mounted vertically in a buffer-filled organ bath (˜22° C.), set at optimal length, and after 15 min was stimulated over a force-frequency protocol between 1-300 Hz (600 mA; 500 ms train duration; 0.25 ms pulse width). […] Shortening velocity was determined 10 ms after the first change in length and on the linear section of the transient (DMA software, Aurora Scientific). Force (N) was normalized to muscle cross-sectional area (CSA; cm^2) by dividing muscle mass (g) by the product of Lo (cm) and estimated muscle density (1.06), which allowed specific force in N/cm^2 to be calculated. Shortening velocity was normalized to optimal muscle length (in Lo/s), while power was calculated for each load as the product of shortening velocity and specific force (in W/cm^2).

[4] = tested on: diaphragm fiber bundle of MCT mice; experiment: Contractile function of diaphragm fiber bundles, MCT mice; format: in vivo; settings: MCT mice fed compound vs MCT; MCT impairs by around 20% vs sham
Experimental: as §1

[5] = tested on: eIF2B4, AS3MT, ATPAF1, GHDC, BAX protein levels in diaphragm; experiment: Proteomic analysis (mass spectrometry) of diaphragm, MCT mice; format: in vivo; settings: MCT + MyoMed-946/MCT, n=3 per group
Experimental: Proteins from frozen diaphragm samples in sham, MCT, and MCT+compound mice (n=3 per group) were powdered under liquid N2. Mass spectrometry was then performed at the DZHK mass spectrometry core facility at Bad Nauheim, as described in Konzer et al., Methods in molecular biology, 2013, 1005, 39-52. The relative ratios for MCT/sham and MCT+compound/MCT were determined, with only hits deemed to be differentially expressed and highly significant (P<0.01) further studied by Western blot.

[6] = tested on: MAFbx, MuRF1, CARP, BAX, eIF2B-delta expression; experiment: Western blot analysis of TA muscle, MCT mice; format: in vivo
Source text: The Western blot analyses consisted of frozen TA muscle samples being homogenized in RIPA buffer (50 mmol/L Tris, 150 mmol/L sodium chloride, 1 mmol/L EDTA, 1% NP-40, 0.25% sodium-deoxycholate, 0.1% SDS, 1% Triton X-100; pH 7.4) or relax buffer (90 mmol/L HEPES, 126 mmol/L potassium chloride, 1 mmol/L MgCl, 50 mmol/L EGTA, 8 mmol/L ATP, 10 mmol/1 Creatinephosphate; pH 7.4) containing a protease inhibitor mix (Inhibitor mix M, Serva, Heidelberg, Germany), sonicated, and centrifuged at 16,000×g for 5 min. Protein concentration of the supernatant was determined (BCA assay, Pierce, Bonn, Germany) and aliquots (5-20 μg) were separated by SDS-polyacrylamide gel electrophoresis. Proteins were transferred to a polyvinylidene fluoride membrane (PVDF) and incubated overnight at 4° C. with the following primary antibodies: MAFbx ( 1/2000, Eurogentec, Seraing, Belgium), MuRF1 ( 1/1000, Myomedix Ltd., Neckargemünd, Germany), CARP ( 1/500, Myomedix Ltd., Neckargemünd, Germany), BAX ( 1/1000; Abcam, Cambridge, UK), and eIF2B-delta ( 1/200; Santa Cruz Biotechnolgy, Santa Cruz, USA). Membranes were subsequently incubated with a horseradish peroxidase-conjugated secondary antibody and specific bands visualized by enzymatic chemiluminescence (Super Signal West Pico, Thermo Fisher Scientific Inc., Bonn, Germany) and densitometry quantified using a 1D scan software package (Scanalytics Inc., Rockville, USA). Blots were then normalized to the loading control GAPDH ( 1/30000; HyTest Ltd, Turku, Finland). All data are presented as fold change relative to sham.

## Cc1cc(=O)oc2cc(OCc3ccc(C(=O)OCC(=O)NC(=O)NCc4ccco4)cc3)ccc12 [MyoMed-946, [2-(2-furylmethylcarbamoylamino)-2-oxo-ethyl] 4-[(4-methyl-2-oxo-chromen-7-yl)oxymethyl]benzoate]
[1]
  decay on storage: no trace of decay
[2]
  citrate synthase enzyme activity: attenuated; also recorded: partially or complete restores
[3]; CHF mice fed compound vs control chow, week 10
  post-infarct diaphragm weakness (diaphragm myopathy): protected mice from such a post-infarct diaphragm weakness
[3]; CHF mice fed compound vs untreated CHF mice
  loss of diaphragm function and diaphragm maximal force due to chronic heart failure: significantly reduced
[4]
  contractile dysfunction of the diaphragm (shortening velocity and power): essentially prevented
[5]
  Protein Ratio (log2), AS3MT: −0.31
  Protein Ratio (log2), ATPAF1: −0.68
  Protein Ratio (log2), BAX: −0.73
  Protein Ratio (log2), GHDC: −0.39
  Protein Ratio (log2), eIF2B4: 0.32
[6]; MCT+compound vs MCT
  increase in CARP expression: attenuated; also recorded: abolished
  increased protein expression of MuRF1: attenuated; also recorded: prevented
  protein expression of MAFBx: No changes are detected; also recorded: no effects were observed
[6]; MCT+compound vs MCT, confirmed by immunoblotting
  expression of eIF2B (delta subunit): upregulation
[6]; MCT+compound, upregulated in MCT vs sham
  expression of BAX: normalized

Reference: patent publication US12331042B2, “Compounds suitable for the treatment and prophylaxis of muscle wasting and other conditions” (priority 2019, dated 2025)
